Results: ChEMBL document CHEMBL5528065, “Structure-Activity Relationship of a Pyrrole Based Series of PfPKG Inhibitors as Anti-Malarials” (J Med Chem, 2024)

What was measured:
[1] = system: Plasmodium falciparum; assay: Antimalarial activity against drug-sensitive Plasmodium falciparum 3D7 infected in human erythrocytes assessed as reduction in parasitemia incubated for 72 hrs by SYBR green I and Mitotracker deep red dye based flow cytometric analysis; assay type: functional, organism-based
[2] = species on record: Homo sapiens; assay: Inhibition of human PKG using FAM-IP3R peptide as fluorescent substrate at 10 uM preincubated for 15 mins followed by substrate addition measured after 1 hr by fluorescence polarization based IMAP assay relative to control; settings: time 75.0 min
[3] = system: Plasmodium berghei; assay: Antimalarial activity against Plasmodium berghei sporozoites expressing Luciferase infected in human HepG2 cells assessed as reduction in parasite growth incubated for 48 hrs by ONE-Glo luciferase assay; assay type: functional, organism-based
[4] = Inhibition of recombinant Plasmodium falciparum PKG using FAM-PKA peptide as fluorescent substrate preincubated for 15 mins followed by substrate addition measured after 1 hr by fluorescence polarization based IMAP assay
[5] = system: Plasmodium falciparum; assay: Antimalarial activity against Plasmodium falciparum expressing PKG T618Q mutant infected in human erythrocytes assessed as reduction in parasitemia incubated for 72 hrs by SYBR green I and Mitotracker deep red dye based flow cytometric analysis; assay type: functional, organism-based; settings: Plasmodium falciparum, 72 h
[6] = Plasmodium falciparum, 3D7, 72 h
[7] = Plasmodium berghei, HepG2, 48 h

SMILES	EC50 [1, 6] [nM]	inhibition [2] [%]	EC50 [3, 7] [nM]	IC50 [4] [nM]	pIC50 [4]	EC50 [5] [nM]	EC50 [3] [nM]	EC50 [1] [nM]
CN1C[C@@H]2C(c3cc(-c4ccncc4)c(-c4ccc(F)cc4)[nH]3)[C@@H]2C1.Cl.Cl (stereo partly specified)	640	6	670	207	6.59	900		
CN1CCC(c2cc(-c3ccncc3)c(-c3ccc(C(F)(F)F)cc3)[nH]2)CC1.Cl.Cl	530	-2	2600	329	6.94	800		
CN1CCC(c2cc(-c3ccncc3Cl)c(-c3ccc(F)cc3)[nH]2)CC1.Cl.Cl	460	12	1440	152	7.47	3950		
COc1ccc(-c2[nH]c(C3CCN(C)CC3)cc2-c2ccncc2)cc1.Cl.Cl	230	6	240	30	7.2	1090		
C[C@H]1C[C@H](c2cc(-c3ccncc3)c(-c3ccc(F)cc3)[nH]2)CCN1C.Cl.Cl (racemic)	380	7	560	51	7.1	950		
CC(=O)O.CN1CCC(c2[nH]c(-c3ccc(F)cc3)c(-c3ccncc3)c2CO)CC1	4610	11		226	6.65	4190		
CN1CCC(c2cc(-c3ccnc(C(N)=O)c3)c(-c3ccc(F)cc3)[nH]2)CC1.Cl.Cl	3920	14		1810	5.74	> 10000		
CN1CCC(c2[nH]c(-c3ccc(F)cc3)c(-c3ccncc3)c2C#N)CC1.Cl.Cl	900	19	540	11	7.96	2450		
CCc1c(C2CCN(C)CC2)[nH]c(-c2ccc(F)cc2)c1-c1ccncc1.Cl.Cl		12		1610	5.79			
CN1CCC(c2cc(-c3ccncc3)c(-c3ccc(F)cc3)[nH]2)CC1.Cl	230	6	270	31	7.61	1020		
CN1CCC(c2[nH]c(-c3ccc(F)cc3)c(-c3ccncc3)c2C(N)=O)CC1.Cl.Cl	> 20000	14		4840	5.31			
CN1CCC(c2cc(-c3ccncc3Br)c(-c3ccc(F)cc3)[nH]2)CC1.Cl.Cl	330	13	340	35	7.46	1670		
CN1CCC(c2cc(-c3ccncc3C(N)=O)c(-c3ccc(F)cc3)[nH]2)CC1.Cl.Cl	> 20000	15		4910	5.31			
CC(O)c1cc(-c2cc(C3CCN(C)CC3)[nH]c2-c2ccc(F)cc2)ccn1.Cl.Cl (stereo unspecified)	3350	0.5	> 10000	10500	4.98	8320		
CN1CCC(c2cc(-c3ccnc(Br)c3)c(-c3ccc(F)cc3)[nH]2)CC1.Cl.Cl	1720	36		169	6.77	1930		
CN1CCC(C)(c2cc(-c3ccncc3)c(-c3ccc(F)cc3)[nH]2)CC1.Cl.Cl	550	35	500	50	7.09	1070		

SMILES	EC50 [1, 6] [nM]	inhibition [2] [%]	EC50 [3, 7] [nM]	IC50 [4] [nM]	pIC50 [4]	EC50 [5] [nM]	EC50 [3] [nM]	EC50 [1] [nM]
CN1CCC(c2cc(-c3ccncc3F)c(-c3ccc(F)cc3)[nH]2)CC1.Cl.Cl	300	18	780	49	7.72	5220		
CC(=O)O.CN1CCC(c2cc(-c3ccnc(C#N)c3)c(-c3ccc(F)cc3)[nH]2)CC1	420	9	2800	95	7.02	3730		
CN1C2CCC1CC(c1cc(-c3ccncc3)c(-c3ccc(F)cc3)[nH]1)C2.Cl.Cl (stereo unspecified)	350	-9	490	132	7.09	670		
CN1CCC(c2cc(-c3ccncc3)c(-c3ccc(F)cc3)n2C)CC1.Cl.Cl	710	4	2300	112	6.95	690		
Cc1cc(-c2cc(C3CCN(C)CC3)[nH]c2-c2ccc(F)cc2)ccn1.Cl.Cl	2330	9	3700	2550	5.59	960		
CN1CCC(c2cc(-c3ccn4nnnc4c3)c(-c3ccc(F)cc3)[nH]2)CC1.Cl.Cl	2750	12	> 20000	11600	4.94	2270		
CN1CCC(c2cc(-c3ccncc3)c(-c3ccsc3)[nH]2)CC1.Cl.Cl	1020	7	2400	176	6.89	1740		
C=Cc1c(C2CCN(C)CC2)[nH]c(-c2ccc(F)cc2)c1-c1ccncc1.CC(=O)O	1080	-1	410	246	6.61	1170		
CN(C)Cc1c(C2CCN(C)CC2)[nH]c(-c2ccc(F)cc2)c1-c1ccncc1.Cl.Cl.Cl		8		3760	5.43			
C[C@@H]1C[C@H](c2cc(-c3ccncc3)c(-c3ccc(F)cc3)[nH]2)CCN1C.Cl.Cl (racemic)	360	10	670	41	6.97	900		
Cc1cnccc1-c1cc(C2CCN(C)CC2)[nH]c1-c1ccc(F)cc1.Cl.Cl	1360	12	590	208	6.68	1130		
CN1CCC(c2[nH]c(-c3ccc(F)cc3)c(-c3ccncc3)c2Br)CC1.Cl.Cl	1550	12		107	6.97	1140		
C[C@@H]1CN(C)CC[C@H]1c1cc(-c2ccncc2)c(-c2ccc(F)cc2)[nH]1.Cl.Cl (racemic)	30	9		27	7.64	800	280	
C[C@H]1CN(C)CC[C@H]1c1cc(-c2ccncc2)c(-c2ccc(F)cc2)[nH]1.Cl.Cl (racemic)		35	190	10	7.89	660		30
CC(=O)O.CC(O)c1c(C2CCN(C)CC2)[nH]c(-c2ccc(F)cc2)c1-c1ccncc1 (stereo unspecified)	4260	15		1430	5.84	3750		
